# From ChEMBL document CHEMBL3616461, “Design, synthesis and biological evaluation of novel pyrazolo-pyrimidinones as DPP-IV inhibitors in diabetes” (Bioorg Med Chem Lett, 2015)
# How the values were obtained:
# Dipeptidyl peptidase 4 = Dipeptidyl peptidase 4 (Homo sapiens, UniProt P27487); experiment: Inhibition of human recombinant DPP-4 using Gly-pro-p-nitroanilide as substrate assessed as formation of p-nitroaniline after 30 mins by colorimetric assay
# [1] = Cytotoxicity against rat macrophages by MTS/PMS assay; assay type: cell-based; details: macrophage
# Rattus norvegicus [2] = experiment: Antidiabetic activity in high-fat-diet and low dose streptozotocin-induced diabetic Wistar rat assessed as blood glucose level at 50 mg/kg, po after 15 days (reference value: 515 mg/dl); assay type: functional
# Rattus norvegicus [3] = experiment: Antidiabetic activity in high-fat-diet and low dose streptozotocin-induced diabetic Wistar rat assessed as blood glucose level at 10 mg/kg, po after 15 days (reference value: 515 mg/dl); assay type: functional
# Chain of Dipeptidyl peptidase 4 (P27487 whole entry): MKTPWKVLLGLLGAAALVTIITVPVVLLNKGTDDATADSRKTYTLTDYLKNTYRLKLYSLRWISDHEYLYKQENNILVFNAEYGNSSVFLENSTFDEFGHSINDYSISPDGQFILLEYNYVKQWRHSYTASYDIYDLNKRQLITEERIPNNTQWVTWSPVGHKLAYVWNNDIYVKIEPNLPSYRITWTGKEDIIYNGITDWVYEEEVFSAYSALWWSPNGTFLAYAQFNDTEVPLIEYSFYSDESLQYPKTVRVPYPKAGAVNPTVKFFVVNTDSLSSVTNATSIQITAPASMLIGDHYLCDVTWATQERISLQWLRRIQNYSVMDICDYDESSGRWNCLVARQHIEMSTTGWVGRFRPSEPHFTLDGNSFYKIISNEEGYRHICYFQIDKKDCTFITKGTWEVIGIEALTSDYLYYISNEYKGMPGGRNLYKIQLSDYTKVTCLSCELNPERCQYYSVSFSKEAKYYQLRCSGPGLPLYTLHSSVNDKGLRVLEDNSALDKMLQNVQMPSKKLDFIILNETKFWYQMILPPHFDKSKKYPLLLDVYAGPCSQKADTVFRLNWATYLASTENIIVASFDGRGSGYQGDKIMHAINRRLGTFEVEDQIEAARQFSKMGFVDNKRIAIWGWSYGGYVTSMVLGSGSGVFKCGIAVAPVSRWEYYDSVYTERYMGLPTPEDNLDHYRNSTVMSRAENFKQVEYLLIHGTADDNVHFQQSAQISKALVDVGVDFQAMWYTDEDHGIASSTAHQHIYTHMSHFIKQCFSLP
SMILES,IC50 (Dipeptidyl peptidase 4),Activity [1],Activity (Rattus norvegicus [2]) [mg/dL],Activity (Rattus norvegicus [3]) [mg/dL]
Cc1nc2c(cnn2-c2ccccc2)c(=O)n1-c1ccccc1,Not Active,Non-toxic,–,–
Cc1nc2c(cnn2-c2ccccc2)c(=O)n1-c1ccc(F)cc1,Not Active,Non-toxic,–,–
CCc1ccc(-n2c(C)nc3c(cnn3-c3ccccc3)c2=O)cc1,Not Active,Non-toxic,–,–
Cc1cc(C)c(-n2c(C)nc3c(cnn3-c3ccccc3)c2=O)c(C)c1,–,Non-toxic,162.6,–
COc1ccc(-n2ncc3c(=O)n(-c4ccc(F)cc4)c(C)nc32)cc1,Not Active,Non-toxic,–,–
Cc1nc2c(cnn2-c2ccccc2)c(=O)n1Cc1ccccc1,Not Active,Non-toxic,–,–
Cc1nc2c(cnn2-c2ccccc2)c(=O)n1-c1ccc(F)cc1F,Not Active,Non-toxic,–,–
Cc1nc2c(cnn2-c2ccccc2)c(=O)n1-c1ccccn1,–,Non-toxic,–,–
Cc1nc2c(cnn2-c2ccccc2)c(=O)n1-c1ncccn1,–,Non-toxic,–,–
Cc1ccnc(-n2c(C)nc3c(cnn3-c3ccccc3)c2=O)c1,–,Non-toxic,198.5,–
Cc1nc2c(cnn2-c2ccccc2)c(=O)n1-c1ccc(Br)cn1,–,Non-toxic,–,–
Cc1nc2c(cnn2-c2ccccc2)c(=O)n1-c1ccc([N+](=O)[O-])cn1,Not Active,Non-toxic,–,–
COc1ccc(-n2ncc3c(=O)n(-c4ccccn4)c(C)nc32)cc1,Not Active,Non-toxic,–,–
COc1ccc(-n2ncc3c(=O)n(-c4cc(C)ccn4)c(C)nc32)cc1,–,Non-toxic,–,–
COc1ccc(-n2ncc3c(=O)n(-c4ccc(Br)cn4)c(C)nc32)cc1,Not Active,Non-toxic,–,–
COc1ccc(-n2ncc3c(=O)n(-c4ccc([N+](=O)[O-])cn4)c(C)nc32)cc1,Not Active,Non-toxic,–,–
COc1ccc(-n2ncc3c(=O)n(-c4nc(-c5ccc(Cl)cc5)cs4)c(C)nc32)cc1,–,Non-toxic,–,–
CCOC(=O)c1sc(-n2c(C)nc3c(cnn3-c3ccccc3)c2=O)c(C(=O)OCC)c1C,Not Active,Non-toxic,–,–
CCOC(=O)c1sc(-n2c(C)nc3c(cnn3-c3ccc(OC)cc3)c2=O)c(C(=O)OCC)c1C,Not Active,Non-toxic,–,–
O=C(Nc1ccc(F)cc1)c1cnn(-c2ccccc2)c1NC(=O)C(F)(F)F,–,Non-toxic,193.2,–
O=C(Nc1ccc(Cl)cc1)c1cnn(-c2ccccc2)c1NC(=O)C(F)(F)F,Not Active,Non-toxic,–,–
CC(=O)Nc1c(C(=O)Nc2ccc(Br)cn2)cnn1-c1ccccc1,Not Active,Non-toxic,–,–
CC(=O)Nc1c(C(=O)Nc2nc(-c3ccc(Cl)cc3)cs2)cnn1-c1ccccc1,Not Active,Non-toxic,–,–
CC(=O)Nc1c(C(=O)Nc2ccccn2)cnn1-c1ccccc1,Not Active,Non-toxic,–,–
Cc1nc2c(cnn2-c2ccccc2)c(=O)n1-c1cccc(Cl)c1,Not Active,Non-toxic,–,–
N[C@@H](CC(=O)N1CCn2c(nnc2C(F)(F)F)C1)Cc1cc(F)c(F)cc1F [SITAGLIPTIN],–,Non-toxic,–,136.4
